Data reported in patent publication US10988792B2, “Methods for antimicrobial resistance determination” (bioMerieux, Inc., priority 2009, dated 2021).

Assays:
S. aureus D14906 (MRSA) = assay: BOCILLIN-FL metabolic labeling (culturing cells with BOCILLIN-FL); type: binding
Protocol: (§1) Two experimental approaches were used to test BOCILLIN™-FL (Molecular Probes, Invitrogen) binding to S. aureus: (1) treating cells with sodium hydroxide (NaOH), neutralizing, adding BOCILLIN™-FL, then separating the cells (harsh pretreatment); and (2) culturing cells with BOCILLIN™-FL, then separating the cells (metabolic labeling).
(§2) For the second method, the two bacterial suspensions (13 ml) were mixed with BOCILLIN™-FL (175 μl of 1.0 mg/ml stock). The mixtures were aliquoted in 1.0 ml samples into microfuge tubes containing 0.2 ml of oil blend. The tubes were incubated at 37° C. for various time-points (keeping 1 set of tubes on ice for the T0 time-point). One set of tubes was removed at 30 minutes and the cells separated from free BOCILLIN™-FL by washing twice with PBS. One set of tubes was removed at 30, 52, 68, and 86 minutes and the cells separated from free BOCILLIN™-FL by centrifugation through the oil blend. The cells were recovered and resuspended in 3 ml PBS. The samples were scanned in the FluoroLog-3 system at an excitation wavelength of 490 nm and the fluorescence emission at 510 nm was recorded.

[1] = test system: S. aureus ATCC 25923 (MSSA); assay: as above; type: binding; conditions: for MSSA/MRSA Ratio: MSSA (25923)/MRSA (D14906); for BOCILLIN-FL binding, fluorescence emission at 510 nm (excitation 490 nm), raw data: MSSA (25923)
Protocol: as §1, §2

[2] = 30′ at 37° C., washed x 2 (PBS)

Compound: Cc1cc(C)n2c1C=C1C=CC(CCC(=O)Nc3ccc(OCC(=O)N[C@@H]4C(=O)N5[C@@H]4SC(C)(C)[C@@H]5C(=O)[O-])cc3)=[N+]1[B-]2(F)F.[Na+] [BOCILLIN™-FL]
- BOCILLIN-FL binding, fluorescence emission at 510 nm (excitation 490 nm), raw data (S. aureus D14906 (MRSA); 30′ at 37° C., separation Oil): 326.790
- BOCILLIN-FL binding, fluorescence emission at 510 nm (excitation 490 nm), raw data (S. aureus D14906 (MRSA); [2]): 206,250
- BOCILLIN-FL binding, fluorescence emission at 510 nm (excitation 490 nm), raw data (S. aureus D14906 (MRSA); 52′ at 37° C., separation Oil): 363,000
- BOCILLIN-FL binding, fluorescence emission at 510 nm (excitation 490 nm), raw data (S. aureus D14906 (MRSA); 68′ at 37° C., separation Oil): 346,270
- BOCILLIN-FL binding, fluorescence emission at 510 nm (excitation 490 nm), raw data (S. aureus D14906 (MRSA); 86′ at 37° C., separation Oil): 510,150
- BOCILLIN-FL binding, fluorescence emission at 510 nm (excitation 490 nm), raw data (S. aureus D14906 (MRSA); T0 (ice), separation Oil): 1,163,240
- BOCILLIN-FL bound by the MRSA strain, less than the MSSA strain, per cell basis ([1]; BOCILLIN-FL signal normalized to the microbial tryptophan signal (FIG. 1)): 3-4 fold
- MSSA/MRSA Ratio ([1]; 30′ at 37° C., separation Oil): 5.60
- MSSA/MRSA Ratio [1, 2]: 2.00
- MSSA/MRSA Ratio ([1]; 52′ at 37° C., separation Oil): 5.35
- MSSA/MRSA Ratio ([1]; 68′ at 37° C., separation Oil): 7.17
- MSSA/MRSA Ratio ([1]; 86′ at 37° C., separation Oil): 4.48
- MSSA/MRSA Ratio ([1]; T0 (ice), separation Oil): 2.36
- BOCILLIN-FL binding, fluorescence emission at 510 nm (excitation 490 nm), raw data ([1]; 30′ at 37° C., separation Oil): 1,831,790
- BOCILLIN-FL binding, fluorescence emission at 510 nm (excitation 490 nm), raw data [1, 2]: 410,830
- BOCILLIN-FL binding, fluorescence emission at 510 nm (excitation 490 nm), raw data ([1]; 52′ at 37° C., separation Oil): 1,941,930
- BOCILLIN-FL binding, fluorescence emission at 510 nm (excitation 490 nm), raw data ([1]; 68′ at 37° C., separation Oil): 2,481,450
- BOCILLIN-FL binding, fluorescence emission at 510 nm (excitation 490 nm), raw data ([1]; 86′ at 37° C., separation Oil): 2,285,980
- BOCILLIN-FL binding, fluorescence emission at 510 nm (excitation 490 nm), raw data ([1]; T0 (ice), separation Oil): 2,745,600
- BOCILLIN-FL bound by the MRSA strain, less than the MSSA strain ([1]; raw data (Table 2), metabolic labeling): 2-7 fold
